In US10301332B2, “Method of selectively releasing nitric oxide depending on change in pH using calcium phosphate” (INSTITUTE FOR BASIC SCIENCE, priority 2015, dated 2019):

Assay: Release of nitric oxide depending on pH (Sievers NOA nitric oxide detector)
Type: physicochemical
Conditions: 1 mg in 40 ml DPBS, pH 7.4 (FIG. 8)
Protocol: FIGS. 8 to 10 illustrate results obtained using a nitric oxide detector (Sievers NOA, GE analytical instruments, USA) in order to confirm a nitric oxide release behavior of the synthesized CaP—NO depending on the change in pH. FIG. 8 illustrates a result of observing the nitric oxide release behavior after adding 1 mg of AEATS to 40 ml of Dulbecco's Phosphate-Buffered Saline (DPBS, pH 7.4). […] FIG. 9 illustrates a result of confirming a nitric oxide release behavior of CaP—NO depending on a change in pH. […] When the pH was increased to 7.4 again, nitric oxide was not released, and as a result of observing the nitric oxide release behavior while repeatedly changing the pH, it was confirmed that when the pH was 5, nitric oxide was released.

With CO[Si](CCCNCCN)(OC)OC [AEATS, N-(2-aminoethyl)-3-aminopropyl trimethoxysilane] the “nitric oxide release behavior” value was “a large amount of nitric oxide was released”.
